# Test results reported in patent publication US7709516B2, “Helix 12 directed non-steroidal antiandrogens” (Endorecherche, Inc., priority 2005, dated 2010).
# Like-named read-outs stand apart in the source and are kept apart here.
# Legend:
# [1] = system: rat prostate, seminal vesicle, levator ani muscle; assay: Systemic antiandrogenic activity in orchidectomized immature male rats with DHT implant; type: in vivo; conditions: Table 3, rat +DHT, 0.5 mg/animal daily 7 days
# [2] = system: rat prostate, seminal vesicle, levator ani muscle; assay: Systemic androgenic activity in orchidectomized immature male rats; type: in vivo; conditions: for change in vivo at 0.2 mg: 168 h, 0.2 mg/animal daily 7 days
# Source text: Column 7 represents the % of androgenic efficacy in rat prostate, expressed in percentage of stimulation:
# W is the weight of the prostate.
# Column 8 represents the % of androgenic efficacy in rat seminal vesicle, expressed in percentage of stimulation:
# W is the weight of the seminal vesicle.
# Column 9 represents the % of androgenic efficacy in rat levator ani muscle, expressed in percentage of stimulation: […]
# Immature male rats (Crl:CD(SD)Br) 22 to 24-day old were obtained from Charles-River, Inc. (St-Constant, Quebec, Canada) and housed up to 5 per cage in plastic bins in a temperature (23±1° C.)— and light (12 h light/day, lights on at 7h15)— controlled environment. The rats were fed rodent chow and tap water ad libitum. The day following their arrival, the animals were orchidectomized (CX) under Isoflurane anesthesia via scrotal route and randomly assigned to groups of 5 animals.
# To evaluate the antiandrogenic activity, tested compounds were administered subcutaneously or orally once daily at a dose of 0.5 mg/animal for antiandrogenitic activity or 0.2 mg/animal for androgenic activity for 7 days (SD 1 to 7). Compounds were solubilized (when possible) in dimethylsulfoxide (DMSO, 10% final concentration) and administered as suspension in 0.4% methylcellulose. […] One group of animals received the antiandrogen Flutamide as reference. The animals were killed by cervical dislocation under isoflurane anesthesia on the 8th morning following castration. The ventral prostate and seminal vesicles were rapidly dissected and weighed.
# 3. Calculations and Statistical Analysis
# W is the weight of the prostate, the seminal vesicle or levator ani.
# [3] = system: Shionogi mouse mammary carcinoma cells; assay: Androgenic/antiandrogenic activity: inhibition of DHT-stimulated Shionogi cell number; type: cell-based; conditions: DHT-stimulated Shionogi cell number, agonist reported when compound stimulates the cells
# [4] = target: T1, Human Androgen Receptor (Homo sapiens, UniProt P10275); assay: Androgen receptor binding assay ([3H]R1881, HAP) in cytosol of HEK-293 cells transfected with hAR; conditions: Table 3; relative to R1881 = 100, transfected cells
# T1 sequence (P10275 1-920): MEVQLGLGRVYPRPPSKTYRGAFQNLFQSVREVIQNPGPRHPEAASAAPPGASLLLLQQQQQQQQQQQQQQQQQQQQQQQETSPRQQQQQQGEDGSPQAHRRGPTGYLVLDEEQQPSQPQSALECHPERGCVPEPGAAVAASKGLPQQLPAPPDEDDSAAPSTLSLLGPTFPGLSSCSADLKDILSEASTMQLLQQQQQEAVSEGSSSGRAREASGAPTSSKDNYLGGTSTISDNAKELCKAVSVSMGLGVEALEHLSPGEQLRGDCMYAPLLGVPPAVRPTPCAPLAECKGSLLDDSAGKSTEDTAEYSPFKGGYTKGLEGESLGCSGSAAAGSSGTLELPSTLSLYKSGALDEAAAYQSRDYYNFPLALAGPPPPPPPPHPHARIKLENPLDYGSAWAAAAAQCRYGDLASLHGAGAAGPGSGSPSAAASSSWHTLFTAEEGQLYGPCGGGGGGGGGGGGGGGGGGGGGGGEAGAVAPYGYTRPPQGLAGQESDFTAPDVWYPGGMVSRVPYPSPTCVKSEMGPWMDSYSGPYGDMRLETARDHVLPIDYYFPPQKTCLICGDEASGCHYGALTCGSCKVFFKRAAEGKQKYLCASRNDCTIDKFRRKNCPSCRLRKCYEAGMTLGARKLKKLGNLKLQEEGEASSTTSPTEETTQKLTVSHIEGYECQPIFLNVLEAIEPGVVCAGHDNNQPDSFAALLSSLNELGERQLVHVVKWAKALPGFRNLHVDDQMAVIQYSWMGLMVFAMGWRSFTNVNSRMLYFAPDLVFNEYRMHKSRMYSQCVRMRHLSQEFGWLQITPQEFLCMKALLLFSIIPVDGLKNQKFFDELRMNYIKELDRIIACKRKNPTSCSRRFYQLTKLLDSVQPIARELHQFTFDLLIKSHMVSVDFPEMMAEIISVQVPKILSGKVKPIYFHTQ
# [5] = sc, Table 3, s.c (marked in prostate cell), read-out: % Stimulation Lev.Ani
# [6] = sc, Table 3, s.c (marked in prostate cell), read-out: % Stimulation SV
# [7] = sc, Table 3, s.c, read-out: % Stimulation Prostate
# [8] = Mus musculus, read-out: Shionogi Antiandrogenic Activity IC50, Table 3
# [9] = po, Table 3, p.o (marked in prostate cell), read-out: % Stimulation Lev.Ani
# [10] = po, Table 3, p.o (marked in prostate cell), read-out: % Stimulation SV
# [11] = po, Table 3, p.o, read-out: % Stimulation Prostate
# [12] = Table 3, s.c. or p.o (route not marked)
SMILES,% Inhibition Prostate ([1]; s.c) [s.c %],"change in vivo at 0.2 mg [2, 5] [%]","change in vivo at 0.2 mg [2, 6] [%]","change in vivo at 0.2 mg [2, 7] [%]",Human Androgen Receptor Binding (%) RBA R1881 = 100 [4] [%],Shionogi Antiandrogenic Activity IC50 ([3]; Table 3),"change in vivo at 0.2 mg [2, 9] [%]","change in vivo at 0.2 mg [2, 10] [%]","change in vivo at 0.2 mg [2, 11] [%]",also measured
Cc1c(N2C(=O)C(C)(C)N(CCCOc3ccc(CNC(C)C)cc3)C2=S)ccc(C#N)c1Cl [EM-7198],15,182,106,65,44,,,,,"IC50 [3, 8]: 10 nM"
Cc1c(N2C(=O)C(C)(C)N(CCCOc3ccc(CN(C)C)cc3)C2=S)ccc(C#N)c1Cl [EM-7298],36,103,29,33,61,,,,,"% Inhibition Lev.Ani ([1]; s.c (marked in prostate cell)): 14%; IC50 [3, 8]: 8.2 nM"
Cc1cc(CN2CCOCC2)ccc1OCCCN1C(=S)N(c2ccc(C#N)c(Cl)c2C)C(=O)C1(C)C [EM-8255],17,80,31,32,76,Partial agonist,,,,
"Cc1c(N2C(=O)C(C)(C)N(CCCOc3ccc(S(C)(=O)=O)cc3)C2=S)ccc(C#N)c1Cl [EM-8260, 4-(3-{3-[4-(1-methylsulfonyl)-phenoxy]-propyl}-4,4-dimethyl-5-oxo-2-thioxo-imidazolidin-1-yl)-2-chloro-3-methyl-benzonitrile]",,,,,17,Partial agonist,74,28,27,% Inhibition Lev.Ani ([1]; p.o (marked in prostate cell)): 24%; % Inhibition SV ([1]; p.o (marked in prostate cell)): 54%; % Inhibition Prostate ([1]; p.o): 40 p.o %
CCS(=O)(=O)c1ccc(OCCCN2C(=S)N(c3ccc(C#N)c(Cl)c3C)C(=O)C2(C)C)cc1 [EM-8261],,,,,32,Partial agonist,82,26,41,% Inhibition Lev.Ani ([1]; p.o (marked in prostate cell)): 8%; % Inhibition SV ([1]; p.o (marked in prostate cell)): 25%; % Inhibition Prostate ([1]; p.o): 38 p.o %
CCC(c1ccc(OCCCN2C(=S)N(c3ccc(C#N)c(Cl)c3C)C(=O)C2(C)C)cc1)N(C)C (centres unmarked) [EM-8345],,,,,68,Partial agonist,77,18,42,
Cc1c(N2C(=O)C(C)(C)N(CCCOc3ccc(-n4ccnc4)cc3)C2=S)ccc(C#N)c1Cl [EM-8346],,,,,125,Partial agonist,128,40,47,
CC(=O)Nc1ccc(OCCCN2C(=S)N(c3ccc(C#N)c(Cl)c3C)C(=O)C2(C)C)cc1 [EM-8362],,,,,66,Partial agonist,105,43,33,
Cc1c(N2C(=O)C(C)(C)N(CCCOc3ccc(S(=O)(=O)C(C)C)cc3)C2=S)ccc(C#N)c1Cl [EM-8363],,,,,52,Partial agonist,85,24,29,
"C[C@]12CC[C@H]3[C@@H](CCC4=CC(=O)CC[C@@]43C)[C@@H]1CC[C@@H]2O [Testo, reference compound]",,,,,,,,,,"% Stimulation Lev.Ani [2, 12]: 171%; % Stimulation Prostate [2, 12]: 99%; % Stimulation SV [2, 12]: 115%; IC50 ([3]; Table 3, read-out: Shionogi Antiandrogenic Activity IC50): 23 to 107 nM"
